Results from EP0393786B1, “New retro-inverse, one- or more bond bearing analogues of thymopentin, a method for synthesizing the same and their employment for the preparation of pharmaceutical” (SCLAVO S.p.A., priority 1989, dated 1990).

Columns and labels:
[1] = test system: lymphocytes which secrete antibodies (PFC); test: Hemolysis plate test (PFC) according to Jerne and Nordin, in vivo immunostimulating activity; design: species or system inbred C3H/HeNCrlBr male mice; conditions: 100 ng of peptide p.o. two hours after SRBC i.v.; spleen lymphocytes after four days; IgM PFC
Description: In particular, the so-called "hemolysis plate test" has been employed (PFC) performed according to the procedure disclosed by Jerne and Nordin.
Said test is carried out by administering through intravenous route to inbred C3H/HeNCrlBr male mice (Calco-Italia) aged 10-12 weeks and of body weight about 25 g, a pyrogen-free saline solution (0.2 ml) containing 1-2 x 10⁸ blood red cells of ram (SRBC). After two hours, groups of three mice each are treated p.o. (intragastric intubation) with 0.2 ml of saline solution (control) or with 0.2 ml of saline solution containing 100 ng of the peptide under test. After four days, the mice are sacrificed and the spleens are drawn and mechanically disrupted to separate the lymphocytes. The lymphocytes so isolated are washed with minimal soil containing Earle salts (MEM) (3 x 15 ml) and then resuspended into the same soil (1 ml) at a final concentration of 150,000 cells. Each cell suspension (0.1 ml) is then diluted 1/100 with MEM soil, and 100 µl of each dilution is added in double to wells of microplates containing 25 µl of MEM soil, 25 µl of a 10 % solution of SRBC antigens and 25 µl of guinea-pig complement at a final dilution of 1/64. The whole suspension is immediately transferred by capillarity from each well onto overlapped glass holder-slides. Such slides, with their edges sealed by means of paraffin, are then put for incubation into a thermostatic chamber at 37°C for one hour.
At the end of such time, the direct hemolysis plates are counted by means of a light-contrast viewer, such plates pointing out the number of lymphocytes which secrete antibodies (PFC). The antibodies so put into evidence are of the class of the IgM's, which are proper of the primary antibody response.

[2] = Stability to enzymic hydrolysis in heparinized human plasma (half-life); conditions: for half-life, times as much as that of thymopentin: relative to thymopentin
Description: The incubations were carried out at 37°C, and the drawings of the plasmatic mixtures, each one of 100 µl, were stopped at the various times by addition of trifluoroacetic acid in the ratio of 10%, with successive centrifugation at 10,000 x g, for five minutes. A portion of the supernatant is subjected to chromatography under conditions suitable to put into evidence the change in concentration of the peptide tested at the various time.

Compound | Plate formation % control [1] [% control] | half-life ([2]; human) [min] | half-life ([2]; test parallel to thymopentin) [min] | half-life, times as much as that of thymopentin [2]
CC(C)[C@@H](NC(=O)C(Cc1ccc(O)cc1)C(=O)O)NC(=O)[C@H](CC(=O)O)NC(=O)C(CCCCN)C(=O)N[C@@H](N)CCCNC(=N)N (stereo partly drawn) [Example 1, CH₃COOH.H-g-Arg-(R,S)mLys-Asp-gVal-(R,S)mTyr-OH] | 196 | > 360 | > 360 | –
CC(C)C(C(=O)N[C@H](CC(=O)O)NC(=O)[C@H](CCCCN)NC(=O)[C@@H](N)CCCNC(=N)N)C(=O)N[C@@H](Cc1ccc(O)cc1)C(=O)O (stereo partly drawn) [Example 2, CH₃COOH.H-Arg-Lys-gAsp-(R,S)mVal-Tyr-OH] | 132 | 10 | – | about 7 times
CC(C)[C@@H](NC(=O)C(Cc1ccc(O)cc1)C(=O)O)NC(=O)[C@H](CC(=O)O)NC(=O)[C@H](CCCCN)NC(=O)[C@@H](N)CCCNC(=N)N (stereo partly drawn) [Example 3, [gVal⁴,(R,S)mTyr⁵]TP5] | 190 | 2.5 | – | about 2 times
CC(C)[C@H](NC(=O)[C@H](CC(=O)O)NC(=O)C(CCCCN)C(=O)NC(N)CCCNC(=N)N)C(=O)N[C@@H](Cc1ccc(O)cc1)C(=O)O (some centres unmarked) [reference compound] | – | 22 | – | –
H-Arg-Lys-Asp-Val-Tyr-OH [TP5, reference compound] | 137 | – | – | –
